Measurements reported in PubChem BioAssay (NCI).
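Tested at 5 concentrations; 48 h exposure; 96-well plates; endpoints linearly interpolated, else capped at highest concentration. TGI denotes the concentration required for complete inhibition of growth.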

Experiments:
Assay in all cases: growth of human tumour cells (NCI), 48 h
[1] = test system: T-47D breast
[2] = test system: SNB-75 CNS
[3] = test system: HCT-116 colon
[4] = test system: RPMI-8226 leukemia
[5] = test system: SF-268 CNS
[6] = test system: PC-3 prostate
[7] = test system: CCRF-CEM leukemia
[8] = test system: HS 578T breast
[9] = test system: KM12 colon
[10] = test system: UACC-62 melanoma
[11] = test system: ACHN renal
[12] = test system: HOP-92 NSCLC
[13] = test system: SW-620 colon
[14] = test system: LOX IMVI melanoma
[15] = test system: IGROV1 ovarian
[16] = test system: HL-60(TB) leukemia
[17] = test system: HCC-2998 colon
[18] = test system: SK-MEL-28 melanoma
[19] = test system: OVCAR-5 ovarian
[20] = test system: RXF-631 renal
[21] = test system: A498 renal
[22] = test system: HT29 colon
[23] = test system: UO-31 renal
[24] = test system: NCI-H226 lung
[25] = test system: EKVX NSCLC
[26] = test system: NCI-H23 lung
[27] = test system: SK-OV-3 ovarian
[28] = test system: DMS 273 small cell lung
[29] = test system: U251 CNS
[30] = test system: HOP-62 NSCLC
[31] = test system: A549 NSCLC
[32] = test system: SNB-19 CNS
[33] = test system: MCF7 breast
[34] = test system: MDA-MB-435
[35] = test system: SN12C renal
[36] = test system: CAKI-1 renal
[37] = test system: M14 melanoma
[38] = test system: TK-10 renal
[39] = test system: NCI/ADR-RES ovarian
[40] = test system: COLO 205 colon
[41] = test system: 786-0 renal
[42] = test system: SR leukemia
[43] = test system: SF-539 CNS
[44] = test system: SK-MEL-5 melanoma
[45] = test system: OVCAR-3 ovarian
[46] = test system: OVCAR-4 ovarian
[47] = test system: RXF 393 renal
[48] = test system: DU-145 prostate
[49] = test system: DMS 114 small cell lung
[50] = test system: MDA-N
[51] = test system: HCT-15 colon
[52] = test system: MDA-MB-231 breast
[53] = test system: SF-295 CNS
[54] = test system: MOLT-4 leukemia
[55] = test system: UACC-257 melanoma
[56] = test system: NCI-H522 lung
[57] = test system: OVCAR-8 ovarian
[58] = test system: MALME-3M melanoma
[59] = test system: SNB-78 CNS
[60] = test system: K-562 leukemia
[61] = test system: DLD-1 colon
[62] = test system: NCI-H460 lung
[63] = test system: SK-MEL-2 melanoma
[64] = test system: M19-MEL melanoma
[65] = test system: HOP-18 NSCLC
[66] = test system: BT-549 breast
[67] = test system: LXFL 529 NSCLC
[68] = test system: KM20L2 colon

SMILES: Cc1nc2c(n1-c1ccc(Br)cc1)C(=O)c1ccccc1C2=O
- TGI [1]: > 100 µM
- TGI [2]: > 62.1 µM
- TGI [3]: > 74 µM
- TGI [4]: > 100 µM
- TGI [5]: > 100 µM
- TGI [6]: 51 µM
- TGI [7]: > 100 µM
- TGI [8]: 50 µM
- TGI [9]: > 100 µM
- TGI [10]: > 85.1 µM
- TGI [11]: > 100 µM
- TGI [12]: 66 µM
- TGI [13]: > 100 µM
- TGI [14]: > 100 µM
- TGI [15]: > 64.4 µM
- TGI [16]: 18 µM
- TGI [17]: > 100 µM
- TGI [18]: > 100 µM
- TGI [19]: > 100 µM
- TGI [20]: > 100 µM
- TGI [21]: > 100 µM
- TGI [22]: > 100 µM
- TGI [23]: > 40.6 µM
- TGI [24]: > 100 µM
- TGI [25]: > 100 µM
- TGI [26]: > 100 µM
- TGI [27]: 97 µM
- TGI [28]: > 100 µM
- TGI [29]: > 43.6 µM
- TGI [30]: > 100 µM
- TGI [31]: > 100 µM
- TGI [32]: > 39.4 µM
- TGI [33]: > 100 µM
- TGI [34]: 23.3 µM
- TGI [35]: > 100 µM
- TGI [36]: > 100 µM
- TGI [37]: > 100 µM
- TGI [38]: > 100 µM
- TGI [39]: > 100 µM
- TGI [40]: > 100 µM
- TGI [41]: > 71.1 µM
- TGI [42]: > 100 µM
- TGI [43]: > 65.2 µM
- TGI [44]: > 100 µM
- TGI [45]: 31.3 µM
- TGI [46]: > 100 µM
- TGI [47]: 69.9 µM
- TGI [48]: > 100 µM
- TGI [49]: > 100 µM
- TGI [50]: > 100 µM
- TGI [51]: > 100 µM
- TGI [52]: > 100 µM
- TGI [53]: > 59.6 µM
- TGI [54]: > 100 µM
- TGI [55]: > 100 µM
- TGI [56]: > 79.2 µM
- TGI [57]: > 70.1 µM
- TGI [58]: > 67.2 µM
- TGI [59]: > 100 µM
- TGI [60]: > 100 µM
- TGI [61]: > 100 µM
- TGI [62]: > 40.9 µM
- TGI [63]: > 100 µM

SMILES: CC(C)(C)c1ccc2c(c1)S(=O)(=O)Nc1cccc(c1)NS(=O)(=O)c1cc(C(C)(C)C)ccc1OCCOCCO2
- TGI [2]: > 100 µM
- TGI [3]: > 100 µM
- TGI [4]: > 100 µM
- TGI [5]: > 100 µM
- TGI [9]: > 100 µM
- TGI [10]: > 100 µM
- TGI [11]: > 100 µM
- TGI [12]: > 100 µM
- TGI [13]: > 100 µM
- TGI [14]: > 100 µM
- TGI [15]: > 100 µM
- TGI [17]: > 100 µM
- TGI [18]: > 100 µM
- TGI [19]: > 100 µM
- TGI [20]: > 100 µM
- TGI [21]: > 100 µM
- TGI [22]: > 100 µM
- TGI [23]: > 100 µM
- TGI [24]: > 100 µM
- TGI [25]: > 100 µM
- TGI [26]: > 100 µM
- TGI [27]: > 100 µM
- TGI [28]: > 100 µM
- TGI [29]: > 100 µM
- TGI [30]: > 100 µM
- TGI [31]: > 100 µM
- TGI [64]: > 100 µM
- TGI [32]: > 100 µM
- TGI [65]: > 100 µM
- TGI [35]: > 100 µM
- TGI [36]: > 100 µM
- TGI [37]: > 100 µM
- TGI [38]: > 100 µM
- TGI [40]: > 100 µM
- TGI [41]: > 100 µM
- TGI [43]: > 100 µM
- TGI [44]: > 100 µM
- TGI [45]: > 100 µM
- TGI [46]: > 100 µM
- TGI [47]: > 100 µM
- TGI [49]: > 100 µM
- TGI [51]: > 100 µM
- TGI [53]: > 100 µM
- TGI [54]: > 100 µM
- TGI [55]: > 100 µM
- TGI [57]: > 100 µM
- TGI [58]: > 100 µM
- TGI [59]: > 100 µM
- TGI [60]: > 100 µM
- TGI [61]: > 100 µM
- TGI [62]: > 100 µM
- TGI [63]: > 100 µM

SMILES: CCN(CCCl)CCCCNc1c2ccccc2nc2ccc(OC)cc12
- TGI [1]: 1.5 µM
- TGI [2]: 2.14 µM
- TGI [3]: 1.29 µM
- TGI [4]: 4.08 µM
- TGI [5]: 1.36 µM
- TGI [6]: 1.14 µM
- TGI [66]: 7.41 µM
- TGI [8]: > 100 µM
- TGI [9]: 1.82 µM
- TGI [10]: 1.59 µM
- TGI [11]: 1.72 µM
- TGI [12]: 0.886 µM
- TGI [13]: 1.63 µM
- TGI [14]: 1.52 µM
- TGI [15]: 2.05 µM
- TGI [18]: 8.36 µM
- TGI [19]: 2.96 µM
- TGI [20]: 4.51 µM
- TGI [21]: 0.875 µM
- TGI [22]: 3.31 µM
- TGI [23]: 4.51 µM
- TGI [24]: 1.08 µM
- TGI [25]: 3.15 µM
- TGI [67]: 1.76 µM
- TGI [26]: 1.96 µM
- TGI [27]: 2.77 µM
- TGI [68]: 3.35 µM
- TGI [28]: 1.44 µM
- TGI [29]: 1.72 µM
- TGI [30]: 3.71 µM
- TGI [31]: 2.27 µM
- TGI [64]: 1.68 µM
- TGI [32]: 3.34 µM
- TGI [33]: 0.935 µM
- TGI [34]: 2.12 µM
- TGI [35]: 1.61 µM
- TGI [36]: 1.89 µM
- TGI [37]: 2.92 µM
- TGI [38]: 5.22 µM
- TGI [39]: > 100 µM
- TGI [40]: 3.63 µM
- TGI [41]: 1.56 µM
- TGI [42]: 1.55 µM
- TGI [43]: 4.69 µM
- TGI [44]: 1.98 µM
- TGI [45]: 3.78 µM
- TGI [46]: 2.79 µM
- TGI [47]: 1.7 µM
- TGI [48]: 1.74 µM
- TGI [49]: 1.83 µM
- TGI [50]: 2.96 µM
- TGI [51]: 5.43 µM
- TGI [52]: 3.99 µM
- TGI [53]: 3.64 µM
- TGI [55]: 10.5 µM
- TGI [56]: 1.43 µM
- TGI [57]: 1.94 µM
- TGI [58]: 2.89 µM
- TGI [59]: 4.07 µM
- TGI [62]: 1.39 µM
- TGI [63]: 2.48 µM
